According to the supplement of paper PMC12463676, “Small-molecule dissolution of stress granules by redox modulation benefits ALS models” (Nature Chemical Biology, 2025):

Legend:
lipoamide = compound: NC(=O)CCCCC1CCSS1 [lipoamide]; assay: thermal stability z-score vs DMSO; higher = more thermally stabilized by treatment; settings: HeLa, lipoamide concentration 100 µM
Description: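 Cellular thermal proteome profiling in HeLa cells. Cells were treated with 100 µM lipoamide for 1 h, with or without 1 mM arsenate for a further 1 h, then heated to ten temperatures (37-66.3 °C), and soluble protein was quantified by TMT mass spectrometry relative to 0.1% DMSO controls. The thermal stability score (sum of log2 fold changes minus the abundance score) was transformed to a z-score; mean of n = 3 experiments.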

potassium arsenate = compound: O=[As]([O-])(O)O.[K+] [potassium arsenate]; assay: as above; settings: HeLa; arsenate concentration 1 mM
Description: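 Cellular thermal proteome profiling in HeLa cells treated with 1 mM arsenate for 1 h (DMSO pretreatment), heated to ten temperatures (37-66.3 °C). Soluble protein was quantified by TMT mass spectrometry relative to DMSO controls; the thermal stability score was transformed to a z-score; mean of n = 3 experiments.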

[1] = arsenate co-treatment: 1 mM arsenate 1 h
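Note: each temperature applied for 3 min, abundance score taken as mean log2 fold change at the two lowest temperatures, z-score obtained by mean subtraction and division by SD.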

NPR3 (UniProt P17342)
Chain of UniProt P17342 (P17342 whole entry): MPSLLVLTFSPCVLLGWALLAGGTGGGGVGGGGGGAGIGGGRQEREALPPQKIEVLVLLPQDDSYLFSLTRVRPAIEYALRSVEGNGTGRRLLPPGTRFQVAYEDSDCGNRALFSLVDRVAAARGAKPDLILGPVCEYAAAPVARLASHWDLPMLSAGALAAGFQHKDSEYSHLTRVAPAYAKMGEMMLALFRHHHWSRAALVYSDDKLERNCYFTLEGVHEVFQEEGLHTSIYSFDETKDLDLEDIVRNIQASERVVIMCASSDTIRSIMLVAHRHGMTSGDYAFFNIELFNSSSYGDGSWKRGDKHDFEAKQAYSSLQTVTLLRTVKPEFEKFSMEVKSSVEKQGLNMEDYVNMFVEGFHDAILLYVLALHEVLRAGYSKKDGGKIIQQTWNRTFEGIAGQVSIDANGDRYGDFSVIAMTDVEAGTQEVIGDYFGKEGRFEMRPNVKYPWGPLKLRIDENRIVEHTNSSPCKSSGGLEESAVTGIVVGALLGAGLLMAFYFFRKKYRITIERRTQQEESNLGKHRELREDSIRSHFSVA
thermal stability z-score (lipoamide; [1]): 0.2
thermal stability z-score (lipoamide; arsenate co-treatment: none): -0.339
thermal stability z-score (potassium arsenate): -0.486

NPRL3 (UniProt Q12980)
thermal stability z-score (lipoamide; [1]): -0.0487
thermal stability z-score (lipoamide; arsenate co-treatment: none): 0.0269
thermal stability z-score (potassium arsenate): -0.104

NPTN (UniProt Q9Y639)
thermal stability z-score (lipoamide; [1]): 0.275
thermal stability z-score (lipoamide; arsenate co-treatment: none): -0.0241
thermal stability z-score (potassium arsenate): 0.798

NPTX1 (UniProt Q15818)
thermal stability z-score (lipoamide; [1]): -3.62
thermal stability z-score (lipoamide; arsenate co-treatment: none): -3.29
thermal stability z-score (potassium arsenate): 0.869

NQO1 (UniProt P15559)
thermal stability z-score (lipoamide; [1]): 0.825
thermal stability z-score (lipoamide; arsenate co-treatment: none): 0.331
thermal stability z-score (potassium arsenate): 0.174

NQO2 (UniProt P16083)
thermal stability z-score (lipoamide; [1]): 1.23
thermal stability z-score (lipoamide; arsenate co-treatment: none): 0.788
thermal stability z-score (potassium arsenate): 0.389

NR2C2AP (UniProt Q86WQ0)
Chain of UniProt Q86WQ0 (Q86WQ0 whole entry): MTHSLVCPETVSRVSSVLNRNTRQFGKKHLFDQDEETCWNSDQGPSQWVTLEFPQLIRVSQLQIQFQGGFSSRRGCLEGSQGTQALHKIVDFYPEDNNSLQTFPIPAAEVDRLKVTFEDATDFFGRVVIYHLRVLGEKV
thermal stability z-score (lipoamide; [1]): -0.149
thermal stability z-score (lipoamide; arsenate co-treatment: none): -0.255
thermal stability z-score (potassium arsenate): 0.17

NR3C1 (UniProt P04150)
Chain of UniProt P04150 (P04150 whole entry): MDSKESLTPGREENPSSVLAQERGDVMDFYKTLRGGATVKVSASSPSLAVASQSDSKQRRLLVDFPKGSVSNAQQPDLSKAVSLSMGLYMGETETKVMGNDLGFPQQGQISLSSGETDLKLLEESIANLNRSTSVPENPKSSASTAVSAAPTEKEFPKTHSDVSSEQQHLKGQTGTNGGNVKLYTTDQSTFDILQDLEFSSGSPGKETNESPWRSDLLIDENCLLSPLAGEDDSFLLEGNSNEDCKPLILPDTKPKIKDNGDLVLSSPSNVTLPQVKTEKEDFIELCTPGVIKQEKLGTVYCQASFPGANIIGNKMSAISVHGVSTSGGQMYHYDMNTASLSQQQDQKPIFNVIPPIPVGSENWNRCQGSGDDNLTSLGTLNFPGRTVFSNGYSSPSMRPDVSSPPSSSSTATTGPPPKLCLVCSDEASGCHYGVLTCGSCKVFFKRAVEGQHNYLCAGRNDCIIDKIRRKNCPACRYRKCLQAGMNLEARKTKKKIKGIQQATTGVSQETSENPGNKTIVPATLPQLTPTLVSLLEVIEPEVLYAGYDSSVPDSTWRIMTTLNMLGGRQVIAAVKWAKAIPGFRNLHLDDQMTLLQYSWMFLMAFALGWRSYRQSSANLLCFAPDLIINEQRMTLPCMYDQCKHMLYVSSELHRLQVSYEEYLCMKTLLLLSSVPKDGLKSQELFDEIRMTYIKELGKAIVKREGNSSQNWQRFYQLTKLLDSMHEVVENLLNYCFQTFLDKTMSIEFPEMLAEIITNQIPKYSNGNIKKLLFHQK
thermal stability z-score (lipoamide; [1]): -0.273
thermal stability z-score (lipoamide; arsenate co-treatment: none): -0.664
thermal stability z-score (potassium arsenate): -0.462

NR4A1 (UniProt P22736)
thermal stability z-score (lipoamide; [1]): 0.000871
thermal stability z-score (lipoamide; arsenate co-treatment: none): 0.0723
thermal stability z-score (potassium arsenate): 0.179

NRAS (UniProt P01111)
thermal stability z-score (lipoamide; [1]): 0.00516
thermal stability z-score (lipoamide; arsenate co-treatment: none): -0.21
thermal stability z-score (potassium arsenate): -0.271

NRBF2 (UniProt Q96F24)
thermal stability z-score (lipoamide; [1]): 0.638
thermal stability z-score (lipoamide; arsenate co-treatment: none): 0.117
thermal stability z-score (potassium arsenate): -0.0833

NRBP1 (UniProt Q9UHY1)
thermal stability z-score (lipoamide; [1]): -0.349
thermal stability z-score (lipoamide; arsenate co-treatment: none): -0.151
thermal stability z-score (potassium arsenate): 0.23

NRDC (UniProt O43847)
thermal stability z-score (lipoamide; [1]): -0.0123
thermal stability z-score (lipoamide; arsenate co-treatment: none): -0.0343
thermal stability z-score (potassium arsenate): 0.364

NRDE2 (UniProt Q9H7Z3)
thermal stability z-score (lipoamide; [1]): 0.0849
thermal stability z-score (lipoamide; arsenate co-treatment: none): 0.0451
thermal stability z-score (potassium arsenate): -0.184

NRF1 (UniProt Q16656)
thermal stability z-score (lipoamide; [1]): -0.282
thermal stability z-score (lipoamide; arsenate co-treatment: none): -0.0693
thermal stability z-score (potassium arsenate): 0.311

NSDHL (UniProt Q15738)
Chain of UniProt Q15738 (Q15738 whole entry): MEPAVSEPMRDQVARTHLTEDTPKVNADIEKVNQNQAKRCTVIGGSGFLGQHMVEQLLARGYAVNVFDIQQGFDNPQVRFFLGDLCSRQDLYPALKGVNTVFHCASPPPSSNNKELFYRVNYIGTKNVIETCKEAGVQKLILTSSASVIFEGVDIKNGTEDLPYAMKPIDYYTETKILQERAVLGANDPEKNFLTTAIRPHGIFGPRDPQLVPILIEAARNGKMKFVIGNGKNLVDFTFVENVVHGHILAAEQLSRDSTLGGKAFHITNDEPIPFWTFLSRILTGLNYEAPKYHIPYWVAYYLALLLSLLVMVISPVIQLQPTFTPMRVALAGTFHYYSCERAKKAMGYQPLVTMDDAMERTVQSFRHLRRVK
thermal stability z-score (lipoamide; [1]): 0.566
thermal stability z-score (lipoamide; arsenate co-treatment: none): 0.0586
thermal stability z-score (potassium arsenate): -0.401

NSF (UniProt P46459)
thermal stability z-score (lipoamide; [1]): -0.331
thermal stability z-score (lipoamide; arsenate co-treatment: none): -0.0542
thermal stability z-score (potassium arsenate): 0.232

NSFL1C (UniProt Q9UNZ2)
thermal stability z-score (lipoamide; [1]): 0.605
thermal stability z-score (lipoamide; arsenate co-treatment: none): 0.41
thermal stability z-score (potassium arsenate): 1.21

NSL1 (UniProt Q96IY1)
Chain of UniProt Q96IY1 (Q96IY1 whole entry): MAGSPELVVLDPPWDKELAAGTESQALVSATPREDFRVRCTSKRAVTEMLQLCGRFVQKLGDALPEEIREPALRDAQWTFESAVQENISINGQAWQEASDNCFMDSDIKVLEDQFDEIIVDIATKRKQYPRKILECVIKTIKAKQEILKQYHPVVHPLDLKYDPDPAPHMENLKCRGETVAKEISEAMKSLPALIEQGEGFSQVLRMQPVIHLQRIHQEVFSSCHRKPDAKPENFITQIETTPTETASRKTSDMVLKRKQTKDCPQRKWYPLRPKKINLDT
thermal stability z-score (lipoamide; [1]): 0.254
thermal stability z-score (lipoamide; arsenate co-treatment: none): -0.0663
thermal stability z-score (potassium arsenate): -0.0597

NSMAF (UniProt Q92636)
thermal stability z-score (lipoamide; [1]): -0.123
thermal stability z-score (lipoamide; arsenate co-treatment: none): -0.458
thermal stability z-score (potassium arsenate): -0.758

NSMCE2 (UniProt Q96MF7)
thermal stability z-score (lipoamide; [1]): 0.278
thermal stability z-score (lipoamide; arsenate co-treatment: none): 0.339
thermal stability z-score (potassium arsenate): 0.541

NSMCE3 (UniProt Q96MG7)
thermal stability z-score (lipoamide; [1]): -0.0975
thermal stability z-score (lipoamide; arsenate co-treatment: none): -0.0424
thermal stability z-score (potassium arsenate): 0.119

NSMCE4A (UniProt Q9NXX6)
thermal stability z-score (lipoamide; [1]): -0.245
thermal stability z-score (lipoamide; arsenate co-treatment: none): -0.35
thermal stability z-score (potassium arsenate): -0.055

NSRP1 (UniProt Q9H0G5)
thermal stability z-score (lipoamide; [1]): 0.844
thermal stability z-score (lipoamide; arsenate co-treatment: none): 0.0777
thermal stability z-score (potassium arsenate): 1.07

NSUN2 (UniProt Q08J23)
thermal stability z-score (lipoamide; [1]): -1.4
thermal stability z-score (lipoamide; arsenate co-treatment: none): -0.353
thermal stability z-score (potassium arsenate): -0.192

NSUN4 (UniProt Q96CB9)
thermal stability z-score (lipoamide; [1]): -0.26
thermal stability z-score (lipoamide; arsenate co-treatment: none): 0.337
thermal stability z-score (potassium arsenate): -0.318

NSUN5 (UniProt Q96P11)
thermal stability z-score (lipoamide; [1]): 0.469
thermal stability z-score (lipoamide; arsenate co-treatment: none): -0.155
thermal stability z-score (potassium arsenate): 0.136

NSUN6 (UniProt Q8TEA1)
thermal stability z-score (lipoamide; [1]): -0.141
thermal stability z-score (lipoamide; arsenate co-treatment: none): -0.366
thermal stability z-score (potassium arsenate): -0.526

NT5C2 (UniProt P49902)
thermal stability z-score (lipoamide; [1]): 0.892
thermal stability z-score (lipoamide; arsenate co-treatment: none): -0.608
thermal stability z-score (potassium arsenate): -0.0391

NT5C3A (UniProt Q9H0P0)
thermal stability z-score (lipoamide; [1]): 0.0681
thermal stability z-score (lipoamide; arsenate co-treatment: none): 0.155
thermal stability z-score (potassium arsenate): -1.77

NT5C (UniProt Q8TCD5)
thermal stability z-score (lipoamide; [1]): -0.442
thermal stability z-score (lipoamide; arsenate co-treatment: none): -0.516
thermal stability z-score (potassium arsenate): -0.982

NT5DC1 (UniProt Q5TFE4)
Chain of UniProt Q5TFE4 (Q5TFE4 whole entry): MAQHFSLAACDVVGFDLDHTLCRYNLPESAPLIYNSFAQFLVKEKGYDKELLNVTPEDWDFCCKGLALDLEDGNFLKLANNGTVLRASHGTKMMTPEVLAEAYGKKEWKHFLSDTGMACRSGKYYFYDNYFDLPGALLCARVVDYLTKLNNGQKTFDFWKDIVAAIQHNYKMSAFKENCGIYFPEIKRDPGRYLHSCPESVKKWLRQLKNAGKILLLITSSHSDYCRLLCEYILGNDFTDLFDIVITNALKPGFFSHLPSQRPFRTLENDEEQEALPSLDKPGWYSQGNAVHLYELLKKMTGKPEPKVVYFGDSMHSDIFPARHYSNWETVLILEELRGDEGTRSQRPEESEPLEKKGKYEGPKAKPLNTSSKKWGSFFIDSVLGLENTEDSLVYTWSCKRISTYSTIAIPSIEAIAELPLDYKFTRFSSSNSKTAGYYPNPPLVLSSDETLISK
thermal stability z-score (lipoamide; [1]): 0.0662
thermal stability z-score (lipoamide; arsenate co-treatment: none): -0.687
thermal stability z-score (potassium arsenate): -0.749

NT5DC2 (UniProt Q9H857)
thermal stability z-score (lipoamide; [1]): 0.0403
thermal stability z-score (lipoamide; arsenate co-treatment: none): -0.251
thermal stability z-score (potassium arsenate): 0.13

NT5DC3 (UniProt Q86UY8)
thermal stability z-score (lipoamide; [1]): 0.036
thermal stability z-score (lipoamide; arsenate co-treatment: none): -0.0265
thermal stability z-score (potassium arsenate): -0.179

NTHL1 (UniProt P78549)
Chain of UniProt P78549 (P78549 whole entry): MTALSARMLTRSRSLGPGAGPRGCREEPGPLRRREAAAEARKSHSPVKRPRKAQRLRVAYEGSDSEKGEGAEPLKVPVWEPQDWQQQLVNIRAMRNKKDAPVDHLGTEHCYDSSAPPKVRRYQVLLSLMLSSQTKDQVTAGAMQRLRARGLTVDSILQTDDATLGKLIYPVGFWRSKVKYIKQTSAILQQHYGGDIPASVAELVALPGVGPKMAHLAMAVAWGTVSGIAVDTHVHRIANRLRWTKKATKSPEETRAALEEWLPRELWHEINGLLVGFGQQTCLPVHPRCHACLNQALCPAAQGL
thermal stability z-score (lipoamide; [1]): 0.00215
thermal stability z-score (lipoamide; arsenate co-treatment: none): -0.00667
thermal stability z-score (potassium arsenate): -0.137

NTMT1 (UniProt Q9BV86)
thermal stability z-score (lipoamide; [1]): -0.319
thermal stability z-score (lipoamide; arsenate co-treatment: none): -0.204
thermal stability z-score (potassium arsenate): -0.137

NTPCR (UniProt Q9BSD7)
thermal stability z-score (lipoamide; [1]): -0.0779
thermal stability z-score (lipoamide; arsenate co-treatment: none): -0.905
thermal stability z-score (potassium arsenate): -0.753

NUB1 (UniProt Q9Y5A7)
thermal stability z-score (lipoamide; [1]): -0.391
thermal stability z-score (lipoamide; arsenate co-treatment: none): 0.421
thermal stability z-score (potassium arsenate): 1.15

NUBP1 (UniProt P53384)
thermal stability z-score (lipoamide; [1]): -0.23
thermal stability z-score (lipoamide; arsenate co-treatment: none): 0.385
thermal stability z-score (potassium arsenate): -0.302

NUBP2 (UniProt Q9Y5Y2)
Chain of UniProt Q9Y5Y2 (Q9Y5Y2 whole entry): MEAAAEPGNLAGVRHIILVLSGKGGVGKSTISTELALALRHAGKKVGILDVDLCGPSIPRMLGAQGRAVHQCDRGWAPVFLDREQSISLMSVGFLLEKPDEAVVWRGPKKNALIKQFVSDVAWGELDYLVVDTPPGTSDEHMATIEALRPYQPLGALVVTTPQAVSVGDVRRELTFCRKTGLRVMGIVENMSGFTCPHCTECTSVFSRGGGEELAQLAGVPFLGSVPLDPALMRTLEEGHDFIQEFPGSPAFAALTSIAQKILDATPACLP
thermal stability z-score (lipoamide; [1]): 0.35
thermal stability z-score (lipoamide; arsenate co-treatment: none): -0.855
thermal stability z-score (potassium arsenate): -0.461

NUBPL (UniProt Q8TB37)
thermal stability z-score (lipoamide; [1]): -0.216
thermal stability z-score (lipoamide; arsenate co-treatment: none): -0.498
thermal stability z-score (potassium arsenate): -0.262

NUCB1 (UniProt Q02818)
thermal stability z-score (lipoamide; [1]): -0.169
thermal stability z-score (lipoamide; arsenate co-treatment: none): -0.102
thermal stability z-score (potassium arsenate): -0.222

NUCKS1 (UniProt Q9H1E3)
Chain of UniProt Q9H1E3 (Q9H1E3 whole entry): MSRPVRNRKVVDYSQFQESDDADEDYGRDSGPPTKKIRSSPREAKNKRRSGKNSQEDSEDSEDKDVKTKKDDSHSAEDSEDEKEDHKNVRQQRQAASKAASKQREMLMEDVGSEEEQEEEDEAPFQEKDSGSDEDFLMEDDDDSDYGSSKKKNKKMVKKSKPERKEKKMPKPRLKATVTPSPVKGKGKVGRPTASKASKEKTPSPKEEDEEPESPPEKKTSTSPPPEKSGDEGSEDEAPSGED
thermal stability z-score (lipoamide; [1]): 0.697
thermal stability z-score (lipoamide; arsenate co-treatment: none): 0.845
thermal stability z-score (potassium arsenate): 0.5

NUDC (UniProt Q9Y266)
Chain of UniProt Q9Y266 (Q9Y266 whole entry): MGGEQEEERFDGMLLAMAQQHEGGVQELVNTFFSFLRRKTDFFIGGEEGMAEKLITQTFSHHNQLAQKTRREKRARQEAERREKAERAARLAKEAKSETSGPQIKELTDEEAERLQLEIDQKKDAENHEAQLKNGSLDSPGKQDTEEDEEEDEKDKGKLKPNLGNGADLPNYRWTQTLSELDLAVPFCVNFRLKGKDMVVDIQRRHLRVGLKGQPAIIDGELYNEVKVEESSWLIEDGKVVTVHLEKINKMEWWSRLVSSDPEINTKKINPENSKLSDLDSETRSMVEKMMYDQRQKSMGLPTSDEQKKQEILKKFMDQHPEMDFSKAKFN
thermal stability z-score (lipoamide; [1]): 0.104
thermal stability z-score (lipoamide; arsenate co-treatment: none): 0.205
thermal stability z-score (potassium arsenate): 0.573

NUDCD1 (UniProt Q96RS6)
thermal stability z-score (lipoamide; [1]): -0.287
thermal stability z-score (lipoamide; arsenate co-treatment: none): -0.282
thermal stability z-score (potassium arsenate): -0.0861

NUDCD2 (UniProt Q8WVJ2)
Chain of UniProt Q8WVJ2 (Q8WVJ2 whole entry): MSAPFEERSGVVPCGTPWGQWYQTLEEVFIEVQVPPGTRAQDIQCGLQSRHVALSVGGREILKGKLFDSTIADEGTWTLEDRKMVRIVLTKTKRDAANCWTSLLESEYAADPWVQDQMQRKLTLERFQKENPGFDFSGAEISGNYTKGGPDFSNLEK
thermal stability z-score (lipoamide; [1]): 0.599
thermal stability z-score (lipoamide; arsenate co-treatment: none): 0.779
thermal stability z-score (potassium arsenate): 0.58

NUDCD3 (UniProt Q8IVD9)
Chain of UniProt Q8IVD9 (Q8IVD9 whole entry): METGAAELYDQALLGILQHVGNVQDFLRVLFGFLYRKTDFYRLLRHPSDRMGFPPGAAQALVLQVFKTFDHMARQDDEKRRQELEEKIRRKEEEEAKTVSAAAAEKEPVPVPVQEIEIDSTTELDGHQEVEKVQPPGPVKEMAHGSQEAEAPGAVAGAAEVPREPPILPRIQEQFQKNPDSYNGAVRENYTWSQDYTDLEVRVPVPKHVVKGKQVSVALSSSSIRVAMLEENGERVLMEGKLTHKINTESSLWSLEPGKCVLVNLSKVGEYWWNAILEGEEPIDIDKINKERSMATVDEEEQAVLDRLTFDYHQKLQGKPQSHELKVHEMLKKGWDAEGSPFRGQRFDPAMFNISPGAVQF
thermal stability z-score (lipoamide; [1]): -0.592
thermal stability z-score (lipoamide; arsenate co-treatment: none): -0.183
thermal stability z-score (potassium arsenate): 0.339

NUDT1 (UniProt P36639)
thermal stability z-score (lipoamide; [1]): 0.505
thermal stability z-score (lipoamide; arsenate co-treatment: none): 0.0984
thermal stability z-score (potassium arsenate): -0.00492

NUDT2 (UniProt P50583)
Chain of UniProt P50583 (P50583 whole entry): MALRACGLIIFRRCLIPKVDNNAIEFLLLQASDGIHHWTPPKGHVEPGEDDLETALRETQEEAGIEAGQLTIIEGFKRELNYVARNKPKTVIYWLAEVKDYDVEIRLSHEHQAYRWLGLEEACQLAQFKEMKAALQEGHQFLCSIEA
thermal stability z-score (lipoamide; [1]): -0.303
thermal stability z-score (lipoamide; arsenate co-treatment: none): -0.0026
thermal stability z-score (potassium arsenate): -0.0285

NUDT3 (UniProt O95989)
thermal stability z-score (lipoamide; [1]): 0.511
thermal stability z-score (lipoamide; arsenate co-treatment: none): 0.241
thermal stability z-score (potassium arsenate): -0.213

NUDT4 (UniProt Q9NZJ9)
thermal stability z-score (lipoamide; [1]): -0.239
thermal stability z-score (lipoamide; arsenate co-treatment: none): -0.659
thermal stability z-score (potassium arsenate): -0.881

NUDT5 (UniProt Q9UKK9)
thermal stability z-score (lipoamide; [1]): 0.871
thermal stability z-score (lipoamide; arsenate co-treatment: none): 0.881
thermal stability z-score (potassium arsenate): 0.191

NUDT9 (UniProt Q9BW91)
thermal stability z-score (lipoamide; [1]): -0.674
thermal stability z-score (lipoamide; arsenate co-treatment: none): -0.346
thermal stability z-score (potassium arsenate): 0.0652

NUDT12 (UniProt Q9BQG2)
Chain of UniProt Q9BQG2 (Q9BQG2 whole entry): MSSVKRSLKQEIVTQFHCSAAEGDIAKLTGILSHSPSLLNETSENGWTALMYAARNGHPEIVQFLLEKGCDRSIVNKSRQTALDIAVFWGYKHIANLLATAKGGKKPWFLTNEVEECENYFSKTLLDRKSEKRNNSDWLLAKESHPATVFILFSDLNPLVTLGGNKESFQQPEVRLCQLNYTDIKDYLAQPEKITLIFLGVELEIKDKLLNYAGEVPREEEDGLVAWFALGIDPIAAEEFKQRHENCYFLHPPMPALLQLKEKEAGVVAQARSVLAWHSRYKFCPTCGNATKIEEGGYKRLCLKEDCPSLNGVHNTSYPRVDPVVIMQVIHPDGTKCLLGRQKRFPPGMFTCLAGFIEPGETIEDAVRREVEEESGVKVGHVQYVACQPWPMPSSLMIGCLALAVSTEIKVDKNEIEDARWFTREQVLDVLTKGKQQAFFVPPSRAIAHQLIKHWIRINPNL
thermal stability z-score (lipoamide; [1]): 0.0414
thermal stability z-score (lipoamide; arsenate co-treatment: none): 0.0448
thermal stability z-score (potassium arsenate): 0.253

NUDT15 (UniProt Q9NV35)
thermal stability z-score (lipoamide; [1]): 0.686
thermal stability z-score (lipoamide; arsenate co-treatment: none): 0.121
thermal stability z-score (potassium arsenate): -0.373
